{"source": "patent US20160039917A1", "about": "“Method for Treating Eclampsia and Preeclampsia” (VELO BIO, LLC, priority 2013, published 2016)", "key": {"[1]": {"system": "human placental EDLF production (fetal tissues)", "assay": "Placental explant culture (fetal side), EDLF released into media measured by Digibind RIA", "type": "cell-based", "settings": "for EDLF accumulation in culture: time course; for EDLF production: fetal tissues; for EDLF in the conditioned media, earlier time points / EDLF concentration in the conditioned media: 2 μM; for EDLF in the conditioned media, earlier time points: early time point experiment"}, "placental TNFα release": {"system": "placental TNFα release", "settings": "48 hours", "method": "(§1) For these studies placentas from uncomplicated pregnancies were obtained immediately after delivery and 4-5 small tissue pieces (˜5 mm×5 mm×5 mm) were cut off from the inner fetal side. The tissue pieces were dissected into tiny pieces with sterilized scissors. Any visible clots and blood vessels were removed with sterilized tweezers. The remaining villi were washed repeatedly with PBS to remove blood from the intervillous space. Villous tissue of ˜5 mg/well was then patted dry by sterilized paper tower and incubated in a 6-well cell culture plate with 5 mL of serum-free DMEM (Gibson, Grand Island, N.Y., USA) containing 100 U/mL penicillin, 100 μg/mL streptomycin and 0.25 μg/mL amphotericin B (Sigma, St. Louis, Mo., USA) per well for 48 hours at 37° C. in an incubator gassed with 95% air and 5% CO2.\n(§2) Conditioned media from placental explants cultured with hydrogen peroxide or under low O2 conditions were collected and assayed by a Lipid Hydroperoxide (LPO) Assay Kit (Cayman Chemical, Ann Arbor, Mich., USA) and a human TNF-alpha Quantikine ELISA Kit (R&D Systems, Minneapolis, Minn., USA) following the manufacturers' methods to determine levels of lipid oxidation."}, "[2]": {"system": "placental ROS release (lipid peroxides)", "settings": "48 hours", "method": "as §1, §2"}, "[3]": {"system": "human placental EDLF production (maternal tissues)", "settings": "48 hours", "experimental": "Human placenta was dissected into fetal and maternal tissues. These were incubated in buffered culture media for 48 hours in the absence or presence of graded concentrations of ketoconazole. The culture media was collected and the amount of EDLF released from the tissue was measured using an RIA.\nAt the end of incubation, samples of the culture medium were collected in 15 mL conical tubes and any residual villi were removed by centrifuging at 4000 RPM for 2 min. The supernatant was stored at −80° C. as conditioned medium until later processing and assay.\nAfter the homogenization and tissue culture processes, homogenate and conditioned media samples were collected and assayed by radioimmunoassay. Digibind (GlaxoSmithKline, Research Triangle Park, N.C., USA) was used as the primary antibody anti-EDLF/ouabain and a rabbit anti-sheep immunoglobulin (IgG) Fab fragment antibody (Jackson ImmunoResearch Laboratories, Inc., West Grove, Pa., USA) was used as the secondary antibody. […] Tritiated ouabain (30.0 Ci/mmol, Perkin Elmer, Boston, Mass., USA) was used as a tracer. Cold ouabain solutions at graded concentrations were used as standards. A 100 μL aliquot of specimen or standard ouabain solution (50 nM, 0.1 μM, 0.2 μM, 0.5 μM, 1 μM, 3 μM), plus 50 μL of a 2.22×10^-8 M tritiated ouabain solution, 300 μL of 1.8 μg/mL Digibind solution, 60 μL of 2.12×10^-7 M 2° Ab solution and 10 μL of 10 mM pH 7.4 Tris buffer were combined and mixed well, then allowed to incubate at room temperature overnight to allow antigen-antibody binding. For the assay of conditioned media, because samples contained DMEM medium, 100 μL of DMEM were added to the reaction solutions for each standard and 100 μL of deionized H2O were added to reaction solutions for specimens to bring them to the same volume. EDLF in the several conditioned media/homogenate specimens or standard cold ouabain in the calibrating solutions competed with the labeled ouabain for Digibind and then the secondary (2°) antibody was added to bind to the primary (1°) antibody-antigen complex to decrease its solubility. After the overnight incubation, 563 μL of 16% polyethylene glycol (PEG)-6000 (Calbiochem, La Jolla, Calif., USA) was added to each reaction solution to precipitate the antibody-antigen complex. After centrifugation at 13,200 rpm for 30 min, the supernatant was discarded and the pellet was resuspended in 500 μL of 0.05 M phosphate buffer (pH 7.0)."}}, "note": "Where two headings read alike, the source gives them in different places.", "data": [{"molecule": "CC(=O)[C@@]1(O)CC[C@H]2[C@@H]3CCC4=CC(=O)CC[C@]4(C)[C@H]3CC[C@@]21C", "note": "[17P, 17α-hydroxyprogesterone]", "values": [{"measurement": "EDLF released into the culture media", "setting": "[1]; 48 hours, 0.20 μM", "result": "3.60±1.06 ×10^−8 M ouabain equivalents"}, {"measurement": "EDLF released into the culture media", "setting": "[1]; 48 hours, 0.50 μM", "result": "3.76±0.84 ×10^−8 M ouabain equivalents"}, {"measurement": "EDLF released into the culture media", "setting": "[1]; 48 hours, 1.0 μM", "result": "4.40±1.12 ×10^−8 M ouabain equivalents"}, {"measurement": "EDLF released into the culture media", "setting": "[1]; 48 hours, 2.0 μM", "result": "4.91±1.52 ×10^−8 M ouabain equivalents"}, {"measurement": "EDLF accumulation in culture", "setting": "[1]; 2.0 μM, 6 hours", "result": "12.60±3.81 ×10^−8 M ouabain equivalents"}, {"measurement": "EDLF accumulation in culture", "setting": "[1]; 2.0 μM, 12 hours", "result": "28.30±6.30 ×10^−8 M ouabain equivalents"}, {"measurement": "EDLF accumulation in culture", "setting": "[1]; 2.0 μM, 24 hours", "result": "55.39±33.62 ×10^−8 M ouabain equivalents"}, {"measurement": "EDLF accumulation in culture", "setting": "[1]; 2.0 μM, 36 hours", "result": "95.00±40.44 ×10^−8 M ouabain equivalents"}, {"measurement": "EDLF accumulation in culture", "setting": "[1]; 2.0 μM, 48 hours", "result": "132.43±74.37 ×10^−8 M ouabain equivalents"}]}, {"molecule": "OO", "note": "[H2O2, hydrogen peroxide]", "values": [{"measurement": "released EDLF", "setting": "[1]; 48 hours, 5 nM", "result": "4.87±1.57 ×10^−8 M ouabain equivalents"}, {"measurement": "EDLF levels in the media", "setting": "[1]; higher concentrations (10 nM, 20 nM)", "result": "equal or slightly lower than those treated with 5 nM H2O2"}, {"measurement": "TNFα release", "setting": "placental TNFα release; 1.0 nM", "result": "18.61 ± 13.60", "unit": "pg/mL"}, {"measurement": "TNFα release", "setting": "placental TNFα release; 5.0 nM", "result": "14.95 ± 6.39", "unit": "pg/mL"}, {"measurement": "TNFα release", "setting": "placental TNFα release; 10.0 nM", "result": "15.83 ± 6.63", "unit": "pg/mL"}, {"measurement": "TNFα release", "setting": "placental TNFα release; 20.0 nM", "result": "13.50 ± 3.43", "unit": "pg/mL"}, {"measurement": "lipid peroxides", "setting": "[2]; 1.0 nM", "result": "6.62 ± 3.31", "unit": "µM"}, {"measurement": "lipid peroxides", "setting": "[2]; 5.0 nM", "result": "9.17 ± 3.18", "unit": "µM"}, {"measurement": "lipid peroxides", "setting": "[2]; 10.0 nM", "result": "11.43 ± 3.67", "unit": "µM"}, {"measurement": "lipid peroxides", "setting": "[2]; 20.0 nM", "result": "13.13 ± 5.04", "unit": "µM"}]}, {"molecule": "CC(=O)[C@H]1CC[C@H]2[C@@H]3CCC4=CC(=O)CC[C@]4(C)[C@H]3CC[C@]12C", "note": "[Progesterone, progesterone]", "values": [{"measurement": "effect on EDLF production", "setting": "[1]; placenta", "result": "little or no effect"}]}, {"molecule": "CC(=O)N1CCN(c2ccc(OCC3COC(Cn4ccnc4)(c4ccc(Cl)cc4Cl)O3)cc2)CC1", "note": "(stereo not drawn) [ketoconazole]", "values": [{"measurement": "EDLF production", "setting": "[3]; 1.0 μM", "result": "1.90±2.05 ×10^−8 M RIA ouabain equivalents"}, {"measurement": "EDLF production", "setting": "[3]; 2.0 μM", "result": "1.79±1.96 ×10^−8 M RIA ouabain equivalents"}, {"measurement": "EDLF production", "setting": "[3]; 5.0 μM", "result": "1.83±2.03 ×10^−8 M RIA ouabain equivalents"}, {"measurement": "EDLF production", "setting": "[3]; 10.0 μM", "result": "1.73±1.82 ×10^−8 M RIA ouabain equivalents"}, {"measurement": "EDLF production", "setting": "[3]; 20.0 μM", "result": "2.46±2.60 ×10^−8 M RIA ouabain equivalents"}, {"measurement": "EDLF production", "setting": "[1]; 48 hours, 1.0 μM", "result": "7.99±13.21 ×10^−8 M RIA ouabain equivalents"}, {"measurement": "EDLF production", "setting": "[1]; 48 hours, 2.0 μM", "result": "5.58±8.91 ×10^−8 M RIA ouabain equivalents"}, {"measurement": "EDLF production", "setting": "[1]; 48 hours, 5.0 μM", "result": "1.60±1.62 ×10^−8 M RIA ouabain equivalents"}, {"measurement": "EDLF production", "setting": "[1]; 48 hours, 10.0 μM", "result": "1.47±1.64 ×10^−8 M RIA ouabain equivalents"}, {"measurement": "EDLF production", "setting": "[1]; 48 hours, 20.0 μM", "result": "1.25±1.43 ×10^−8 M RIA ouabain equivalents"}]}, {"molecule": "CC(=O)[C@H]1CC[C@H]2[C@@H]3CC=C4C[C@@H](O)CC[C@]4(C)[C@H]3CC[C@]12C", "note": "[pregnenolone]", "values": [{"measurement": "EDLF in the conditioned media, earlier time points", "setting": "[1]; 3 hours", "result": "77.4+25.0 ×10^−8 M"}, {"measurement": "EDLF concentration in the conditioned media", "setting": "[1]; 6 hours", "result": "325.6±61.0 ×10^−8 M"}, {"measurement": "EDLF in the conditioned media, earlier time points", "setting": "[1]; 6 hours", "result": "76.8+35.0 ×10^−8 M ouabain equivalents"}, {"measurement": "EDLF concentration in the conditioned media", "setting": "[1]; 12 hours", "result": "136.1±27.7 ×10^−8 M"}, {"measurement": "EDLF concentration in the conditioned media", "setting": "[1]; 24 hours", "result": "148.4±15.1 ×10^−8 M"}, {"measurement": "EDLF concentration in the conditioned media", "setting": "[1]; 36 hours", "result": "113.6±14.4 ×10^−8 M"}, {"measurement": "EDLF concentration in the conditioned media", "setting": "[1]; 48 hours", "result": "48.5±7.4 ×10^−8 M"}]}, {"molecule": "TNFα", "values": [{"measurement": "EDLF released into the culture media", "setting": "[1]; 48 hours, 1.0 nM", "result": "2.41±0.80 ×10^−8M ouabain equivalents"}, {"measurement": "EDLF released into the culture media", "setting": "[1]; 48 hours, 2.0 nM", "result": "2.75±0.98 ×10^−8M ouabain equivalents"}, {"measurement": "EDLF released into the culture media", "setting": "[1]; 48 hours, 5.0 nM", "result": "2.76±0.80 ×10^−8M ouabain equivalents"}, {"measurement": "EDLF released into the culture media", "setting": "[1]; 48 hours, 10.0 nM", "result": "3.51±0.69 ×10^−8M ouabain equivalents"}, {"measurement": "EDLF released into the culture media", "setting": "[1]; 48 hours, 20.0 nM", "result": "4.47±0.99 ×10^−8M ouabain equivalents"}]}]}
